Test results taken from patent US20250319053A1, “INHIBITORS OF THE PEPTIDYL-PROLYL CIS/TRANS ISOMERASE (PIN1), COMBINATIONS AND USES THEREOF” (DANA-FARBER CANCER INSTITUTE, INC., priority 2021, published 2025).

What was measured:
[1] = tested on: WT B6 mice (non-tumor-bearing mice); assay: Blood test (CBC, liver, renal) of Pin1i-2 treated non-tumor-bearing B6 mice; format: in vivo, mouse; conditions: for CBC BA: Normal Range 0-2; for CBC EO: Normal Range 0-3.9; for CBC MO: Normal Range 0-7.5; for CBC WBC: Normal Range 1.8-10.7; for Liver Alb: Normal Range 1.95-4.74; for CBC RBC: Normal Range 6.36-9.42; for CBC NE: Normal Range 6.6-38.9; for CBC Hb: Normal Range 11-15.1; for Renal BUN: Normal Range 17-57.5; for Liver ALT: Normal Range 30-206; for CBC LY: Normal Range 55.8-91.6; for CBC PLT: Normal Range 592-2972; for Renal Cre: Normal Range <0.15
Method: Table 1 is a table of blood test results together with body weight of Pin1i−2 treated non-tumor-bearing B6 mice. See also FIG. 1A-FIG. 1G, FIG. 8A-FIG. 8O, and FIG. 9A-9L. WT B6 mice (non-tumor-bearing mice) were treated with vehicle or Pin1i−2 (20, 40, or 60 mg/kg, i.p., daily) for 5 weeks, followed by examining mice body weight or the RBC, Hb, Plate, and kidney and liver function using blood tests at 3 weeks and 5 weeks (n=5).

[2] = target: Pin1 (Homo sapiens, UniProt Q13526); assay: Immunoblotting for Pin1 and substrate oncoproteins in PDAC cells; format: cell-based; parameters: endogenous in cells; host or cells: primary human patient-derived PDAC cells (PDAC1, PDAC2); conditions: 72 hrs
Sequence of Pin1 (Q13526 whole entry): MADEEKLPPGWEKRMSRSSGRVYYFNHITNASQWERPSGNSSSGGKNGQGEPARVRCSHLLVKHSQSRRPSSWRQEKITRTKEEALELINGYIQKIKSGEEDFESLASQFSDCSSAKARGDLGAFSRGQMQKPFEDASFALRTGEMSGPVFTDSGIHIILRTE
Method: Cultured cells were lysed in RIPA buffer (50 mM Tris-HCl, pH 7.2, 150 mM NaCl, 1% NP40, 0.1% sodium dodecyl sulfate (SDS), 0.25% Na-deoxycholate) with freshly added phosphatase inhibitors containing 5 mM NaF and 0.2 mM sodium orthovanadate (NA3VO4), and proteinase inhibitors containing 2 μg/mL Aprotinin, 2 μg/mL Leupeptin, 2 μg/mL Pepstatin A, 1 mM DTT (dithiothreitol), 0.5 mM 4-(2-aminoethyl)-benzenesulfonyl fluoride (AEBSF), and 20 mM Chymotrypsin, and then mixed with the SDS sample buffer and loaded onto a gel after boiling for 10 minutes at 95° C. The proteins were resolved by polyacrylamide gel electrophoresis and transferred to PVDF membrane. The transferred membrane was washed three times with Tris-buffered saline containing 0.1% Tween 20 (TBST). After blocking with TBST containing 5% milk or 3% bovine serum albumin (BSA) for 1 h room temperature, the membrane was incubated with the appropriate primary antibody (diluted 1:500-1:10000) in 5% milk or 3% BSA-containing TBST at 4° C. overnight. After incubation with the primary antibody, the membrane was washed three times with TBST for a total of 30 min followed by incubation with horseradish peroxidase conjugated goat anti-rabbit or anti-mouse IgG (diluted 1:5000) for 1 h at room temperature. After three extensive washes with TBST for a total of 30 min, the immunoblots were visualized by enhanced chemi-luminescence. Immunoblotting results were quantified using ImageJ (NIH).

With `CC(C)(C)CN(C(=O)CCl)C1CCS(=O)(=O)C1` (stereo not shown) [Pin1i−2, sulfopin] the “CBC BA” value ([1]; 20 mg/kg i.p. daily, 3 weeks) was 0.064%, the “CBC EO” value ([1]; 20 mg/kg i.p. daily, 3 weeks) was 0.204% and the “CBC MO” value ([1]; 20 mg/kg i.p. daily, 3 weeks) was 8.248%. For the same compound, the “CBC WBC” value ([1]; 20 mg/kg i.p. daily, 3 weeks) was 7.508 K/uL, the “Liver Alb” value ([1]; 20 mg/kg i.p. daily, 3 weeks) was 3.375 g/dL and the “CBC RBC” value ([1]; 20 mg/kg i.p. daily, 3 weeks) was 9.424 M/uL. For the same compound, the “CBC NE” value ([1]; 20 mg/kg i.p. daily, 3 weeks) was 6.5%, the “CBC Hb” value ([1]; 20 mg/kg i.p. daily, 3 weeks) was 13.8 g/dL and the “Renal BUN” value ([1]; 20 mg/kg i.p. daily, 3 weeks) was 31 mg/dL. The “Liver ALT” value ([1]; 20 mg/kg i.p. daily, 3 weeks) was 41.5 U/L, the “CBC LY” value ([1]; 20 mg/kg i.p. daily, 3 weeks) was 84.982% and the “CBC PLT” value ([1]; 20 mg/kg i.p. daily, 3 weeks) was 530.4 K/uL. The “Renal Cre” value ([1]; 20 mg/kg i.p. daily, 3 weeks) was less than 0.15 mg/dL, the “CBC BA” value ([1]; 20 mg/kg i.p. daily, 5 weeks) was 0.044% and the “CBC EO” value ([1]; 20 mg/kg i.p. daily, 5 weeks) was 0.15%. For the same compound, the “CBC MO” value ([1]; 20 mg/kg i.p. daily, 5 weeks) was 9.16%, the “CBC WBC” value ([1]; 20 mg/kg i.p. daily, 5 weeks) was 7.452 K/uL and the “Liver Alb” value ([1]; 20 mg/kg i.p. daily, 5 weeks) was 2.94 g/dL. For the same compound, the “CBC RBC” value ([1]; 20 mg/kg i.p. daily, 5 weeks) was 9.228 M/uL, the “CBC NE” value ([1]; 20 mg/kg i.p. daily, 5 weeks) was 6.134% and the “CBC Hb” value ([1]; 20 mg/kg i.p. daily, 5 weeks) was 13.38 g/dL. For the same compound, the “Renal BUN” value ([1]; 20 mg/kg i.p. daily, 5 weeks) was 30.4 mg/dL, the “Liver ALT” value ([1]; 20 mg/kg i.p. daily, 5 weeks) was 41.4 U/L and the “CBC LY” value ([1]; 20 mg/kg i.p. daily, 5 weeks) was 84.51%. For the same compound, the “CBC PLT” value ([1]; 20 mg/kg i.p. daily, 5 weeks) was 612.6 K/uL, the “Renal Cre” value ([1]; 20 mg/kg i.p. daily, 5 weeks) was less than 0.15 mg/dL and the “CBC BA” value ([1]; 40 mg/kg i.p. daily, 3 weeks) was 0.056%. For the same compound, the “CBC EO” value ([1]; 40 mg/kg i.p. daily, 3 weeks) was 0.156%, the “CBC MO” value ([1]; 40 mg/kg i.p. daily, 3 weeks) was 8.298% and the “CBC WBC” value ([1]; 40 mg/kg i.p. daily, 3 weeks) was 4.76 K/uL. The “Liver Alb” value ([1]; 40 mg/kg i.p. daily, 3 weeks) was 3.6 g/dL, the “CBC RBC” value ([1]; 40 mg/kg i.p. daily, 3 weeks) was 8.698 M/uL and the “CBC NE” value ([1]; 40 mg/kg i.p. daily, 3 weeks) was 6.97%. The “CBC Hb” value ([1]; 40 mg/kg i.p. daily, 3 weeks) was 12.44 g/dL, the “Renal BUN” value ([1]; 40 mg/kg i.p. daily, 3 weeks) was 28.8 mg/dL and the “Liver ALT” value ([1]; 40 mg/kg i.p. daily, 3 weeks) was 41.67 U/L. The “CBC LY” value ([1]; 40 mg/kg i.p. daily, 3 weeks) was 84.522%, the “CBC PLT” value ([1]; 40 mg/kg i.p. daily, 3 weeks) was 449.2 K/uL and the “Renal Cre” value ([1]; 40 mg/kg i.p. daily, 3 weeks) was less than 0.15 mg/dL. The “CBC BA” value ([1]; 40 mg/kg i.p. daily, 5 weeks) was 0.092%, the “CBC EO” value ([1]; 40 mg/kg i.p. daily, 5 weeks) was 0.618% and the “CBC MO” value ([1]; 40 mg/kg i.p. daily, 5 weeks) was 9.158%. The “CBC WBC” value ([1]; 40 mg/kg i.p. daily, 5 weeks) was 5.876 K/uL, the “Liver Alb” value ([1]; 40 mg/kg i.p. daily, 5 weeks) was 2.98 g/dL and the “CBC RBC” value ([1]; 40 mg/kg i.p. daily, 5 weeks) was 9.714 M/uL. For the same compound, the “CBC NE” value ([1]; 40 mg/kg i.p. daily, 5 weeks) was 8.926%, the “CBC Hb” value ([1]; 40 mg/kg i.p. daily, 5 weeks) was 13.38 g/dL and the “Renal BUN” value ([1]; 40 mg/kg i.p. daily, 5 weeks) was 26.4 mg/dL. The “Liver ALT” value ([1]; 40 mg/kg i.p. daily, 5 weeks) was 46.2 U/L, the “CBC LY” value ([1]; 40 mg/kg i.p. daily, 5 weeks) was 81.206% and the “CBC PLT” value ([1]; 40 mg/kg i.p. daily, 5 weeks) was 548.8 K/uL. The “Renal Cre” value ([1]; 40 mg/kg i.p. daily, 5 weeks) was less than 0.15 mg/dL, the “CBC BA” value ([1]; 60 mg/kg i.p. daily, 3 weeks) was 0.078% and the “CBC EO” value ([1]; 60 mg/kg i.p. daily, 3 weeks) was 0.35%. For the same compound, the “CBC MO” value ([1]; 60 mg/kg i.p. daily, 3 weeks) was 9.418%, the “CBC WBC” value ([1]; 60 mg/kg i.p. daily, 3 weeks) was 6.712 K/uL and the “Liver Alb” value ([1]; 60 mg/kg i.p. daily, 3 weeks) was 3.5 g/dL. For the same compound, the “CBC RBC” value ([1]; 60 mg/kg i.p. daily, 3 weeks) was 9.858 M/uL, the “CBC NE” value ([1]; 60 mg/kg i.p. daily, 3 weeks) was 12.606% and the “CBC Hb” value ([1]; 60 mg/kg i.p. daily, 3 weeks) was 14.76 g/dL. For the same compound, the “Renal BUN” value ([1]; 60 mg/kg i.p. daily, 3 weeks) was 25.4 mg/dL, the “Liver ALT” value ([1]; 60 mg/kg i.p. daily, 3 weeks) was 50.5 U/L and the “CBC LY” value ([1]; 60 mg/kg i.p. daily, 3 weeks) was 77.548%. The “CBC PLT” value ([1]; 60 mg/kg i.p. daily, 3 weeks) was 700.8 K/uL, the “Renal Cre” value ([1]; 60 mg/kg i.p. daily, 3 weeks) was less than 0.15 mg/dL and the “CBC BA” value ([1]; 60 mg/kg i.p. daily, 5 weeks) was 0.016%. For the same compound, the “CBC EO” value ([1]; 60 mg/kg i.p. daily, 5 weeks) was 0.304%, the “CBC MO” value ([1]; 60 mg/kg i.p. daily, 5 weeks) was 10.276% and the “CBC WBC” value ([1]; 60 mg/kg i.p. daily, 5 weeks) was 5.664 K/uL. The “Liver Alb” value ([1]; 60 mg/kg i.p. daily, 5 weeks) was 2.72 g/dL, the “CBC RBC” value ([1]; 60 mg/kg i.p. daily, 5 weeks) was 8.958 M/uL and the “CBC NE” value ([1]; 60 mg/kg i.p. daily, 5 weeks) was 7.656%. For the same compound, the “CBC Hb” value ([1]; 60 mg/kg i.p. daily, 5 weeks) was 12.74 g/dL, the “Renal BUN” value ([1]; 60 mg/kg i.p. daily, 5 weeks) was 22.8 mg/dL and the “Liver ALT” value ([1]; 60 mg/kg i.p. daily, 5 weeks) was 49.2 U/L. The “CBC LY” value ([1]; 60 mg/kg i.p. daily, 5 weeks) was 81.742%, the “CBC PLT” value ([1]; 60 mg/kg i.p. daily, 5 weeks) was 618 K/uL and the “Renal Cre” value ([1]; 60 mg/kg i.p. daily, 5 weeks) was less than 0.15 mg/dL. For the same compound, the “Pin1 and its substrate oncoproteins (IB)” value [2] was “ablate Pin1”.
